Source: US20230277527A1, “ROR-GAMMA MODULATORS” (Escalier Biosciences B.V., priority 2016, published 2023)

How the values were obtained:
RORγt = RORγt (Homo sapiens (Human), UniProt P51449); test: RORγt Gal fusion assay (Gal4 ligand binding reporter assay); type: cell-based; details: RORγt inverse agonists
Description: Human RORγ ligand binding assay was performed in 96-well format. The N-terminal DNA binding domains (DBD) of the native RORγ and RORγt receptors have been substituted with that of the yeast GAL4-DBD and RORγ is expressed constitutively in the cell line. Both agonist and inverse agonist activity can be detected. 10 mM compound stocks were diluted serially 1:3 with DMSO and further diluted with provided media to generate 10 titration points from 60 μM to 3 nM. These treatment conditions were added to the plates as 2× media in 100 μL volume. Each plate includes a positive control with 10 titration points as well as 6 negative control wells with vehicle only. Reporter cells were rapidly thawed and added to the plates in 100 μL volume. The plates were incubated for 24 hrs in a 37° C. humidified 5% CO2 incubator. Media was removed before the addition of room temperature Detection Substrate. After 5 minute incubation, the luminescence was quantified on a luminescence plate reader.

IMQ-induced psoriasis = details: topical pre-treatment daily for 5 days, 4 hours before IMQ
Description: Compounds of Formula (I), (Ia), or (Ib) were tested in the imiquimod (IMQ) induced psoriasis model in mice to determine their in vivo efficacy as topical agents. Female Balb/c mice of age 8-10 weeks were allowed to acclimatize for at least seven days prior to experiment initiation. During this period, the mice were observed daily for clinical signs. Animals were randomly assigned to studies group on Day zero (DO) before anaesthetization and back hair was completely removed by using a depilatory cream. One group of animals served as a naïve control (untreated). […] The severity of psoriasis was monitored and graded daily using a modified human scoring system, the Psoriasis Area and Severity Index (PASI), which consists of measures for ear and skin erythema, scaling and thickness. At the end of the study period, 24 hours after the final dosing, all animals were humanely sacrificed, and blind histopathological scoring was performed by pathologist on H&E stained tissue sections of the ear and back.

RORγt, sequence (P51449 269-508): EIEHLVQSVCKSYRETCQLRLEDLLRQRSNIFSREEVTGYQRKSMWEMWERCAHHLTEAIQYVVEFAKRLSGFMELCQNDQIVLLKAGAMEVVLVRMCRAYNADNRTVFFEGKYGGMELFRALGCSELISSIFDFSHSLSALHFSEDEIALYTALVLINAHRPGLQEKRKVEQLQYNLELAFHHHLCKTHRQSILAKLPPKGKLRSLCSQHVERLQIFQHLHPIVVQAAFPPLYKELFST

IC50 (RORγt) [nM] | Structure (SMILES) | further results
< 1000 | CCOC(=O)CC1CN(Cc2ccncc2)CCN1Cc1ccc(-c2ccc(C(O)(C(F)(F)F)C(F)(F)F)cc2)cc1 (stereo not shown) [Compound 10, ethyl 2-(1-((4′-(1,1,1,3,3,3-hexafluoro-2-hydroxypropan-2-yl)-[1,1′-biphenyl]-4-yl)methyl)-4-(pyridin-4-ylmethyl)piperazin-2-yl)acetate] | 
< 1000 | CCOCCOC(=O)C[C@H]1CN(Cc2ccc(-c3ccc(C(O)(C(F)(F)F)C(F)(F)F)cc3)cc2)CCN1Cc1ccncc1 [Compound 51, 2-ethoxyethyl (S)-2-(4-((4′-(1,1,1,3,3,3-hexafluoro-2-hydroxypropan-2-yl)-[1,1′-biphenyl]-4-yl)methyl)-1-(pyridin-4-ylmethyl)piperazin-2-yl)acetate] | 
< 1000 | CCOC(=O)C1CN(Cc2ccncc2)CCN1Cc1ccc(-c2ccc(C(O)(C(F)(F)F)C(F)(F)F)cc2)cc1 (stereo not shown) [Compound 9, ethyl 1-((4′-(1,1,1,3,3,3-hexafluoro-2-hydroxypropan-2-yl)-[1,1′-biphenyl]-4-yl)methyl)-4-(pyridin-4-ylmethyl)piperazine-2-carboxylate] | 
< 1000 | CC(C)OC(=O)CC1CN(Cc2ccc(-c3ccc(C(O)(C(F)(F)F)C(F)(F)F)cc3)cc2)CCN1Cc1ccncc1 (stereo not shown) [Compound 30, isopropyl 2-(4-((4′-(1,1,1,3,3,3-hexafluoro-2-hydroxypropan-2-yl)-[1,1′-biphenyl]-4-yl)methyl)-1-(pyridin-4-ylmethyl)piperazin-2-yl)acetate] | 
< 1000 | O=C(CC1CN(Cc2ccc(-c3ccc(C(O)(C(F)(F)F)C(F)(F)F)cc3)cc2)CCN1Cc1ccncc1)OCCO (stereo not shown) [Compound 31, 2-hydroxyethyl 2-(4-((4′-(1,1,1,3,3,3-hexafluoro-2-hydroxypropan-2-yl)-[1,1′-biphenyl]-4-yl)methyl)-1-(pyridin-4-ylmethyl)piperazin-2-yl)acetate] | 
> 10000 | O=C(O)C1CN(Cc2ccc(-c3ccc(C(O)(C(F)(F)F)C(F)(F)F)cc3)cc2)CCN1Cc1ccncc1 (stereo not shown) [Compound 20, 4-((4′-(1,1,1,3,3,3-hexafluoro-2-hydroxypropan-2-yl)-[1,1′-biphenyl]-4-yl)methyl)-1-(pyridin-4-ylmethyl)piperazine-2-carboxylic acid] | 
< 1000 | CCOC(=O)CC1CN(Cc2ccc(-c3ccc(C(O)(C(F)(F)F)C(F)(F)F)cc3)c(C)c2)CCN1Cc1ccncc1 (stereo not shown) [Compound 35, ethyl 2-(4-((4′-(1,1,1,3,3,3-hexafluoro-2-hydroxypropan-2-yl)-2-methyl-[1,1′-biphenyl]-4-yl)methyl)-1-(pyridin-4-ylmethyl)piperazin-2-yl)acetate] | 
< 1000 | CCOC(=O)C[C@@H]1CN(Cc2ccc(-c3ccc(C(O)(C(F)(F)F)C(F)(F)F)cc3)cc2)CCN1Cc1ccncc1 [Compound 49, ethyl (R)-2-(4-((4′-(1,1,1,3,3,3-hexafluoro-2-hydroxypropan-2-yl)-[1,1′-biphenyl]-4-yl)methyl)-1-(pyridin-4-ylmethyl)piperazin-2-yl)acetate] | 
 | C[C@H]1C[C@H]2[C@@H]3CCC4=CC(=O)C=C[C@]4(C)[C@@]3(F)[C@@H](O)C[C@]2(C)[C@@]1(O)C(=O)CCl [clobetasol] | ear and back skin thickness (IMQ-induced psoriasis): significantly decreased; histopathology scoring (IMQ-induced psoriasis): significantly decreased; total psoriasis score (IMQ-induced psoriasis): significantly decreased
< 1000 | CCOC(=O)CC1CN(Cc2ccc(-c3ccc(C(O)(C(F)(F)F)C(F)(F)F)cc3)cc2)CCN1Cc1ccncc1 (stereo not shown) [Compound 18, ethyl 2-(4-((4′-(1,1,1,3,3,3-hexafluoro-2-hydroxypropan-2-yl)-[1,1′-biphenyl]-4-yl)methyl)-1-(pyridin-4-ylmethyl)piperazin-2-yl)acetate] | 
> 10000 | O=C(O)CC1CN(Cc2ccc(-c3ccc(C(O)(C(F)(F)F)C(F)(F)F)cc3)cc2)CCN1Cc1ccncc1 (stereo not shown) [Compound 21, 2-(4-((4′-(1,1,1,3,3,3-hexafluoro-2-hydroxypropan-2-yl)-[1,1′-biphenyl]-4-yl)methyl)-1-(pyridin-4-ylmethyl)piperazin-2-yl)acetic acid] | 
< 1000 | CCOCCOC(=O)CC1CN(Cc2ccc(-c3ccc(C(O)(C(F)(F)F)C(F)(F)F)cc3)cc2)CCN1Cc1ccncc1 (stereo not shown) [Compound 32, 2-ethoxyethyl 2-(4-((4′-(1,1,1,3,3,3-hexafluoro-2-hydroxypropan-2-yl)-[1,1′-biphenyl]-4-yl)methyl)-1-(pyridin-4-ylmethyl)piperazin-2-yl)acetate] | 
< 1000 | CCOC(=O)C1CN(Cc2ccc(-c3ccc(C(O)(C(F)(F)F)C(F)(F)F)cc3)cc2)CCN1Cc1ccncc1 (stereo not shown) [Compound 17, ethyl 4-((4′-(1,1,1,3,3,3-hexafluoro-2-hydroxypropan-2-yl)-[1,1′-biphenyl]-4-yl)methyl)-1-(pyridin-4-ylmethyl)piperazine-2-carboxylate] | 
> 10000 | CC(C)NC(=O)C1CN(Cc2ccncc2)CCN1Cc1ccc(-c2ccc(C(O)(C(F)(F)F)C(F)(F)F)cc2)cc1 (stereo not shown) [Compound 24, 1-((4′-(1,1,1,3,3,3-hexafluoro-2-hydroxypropan-2-yl)-[1,1′-biphenyl]-4-yl)methyl)-N-isopropyl-4-(pyridin-4-ylmethyl)piperazine-2-carboxamide] | 
